According to patent publication US20080051454A1, “Compositions and methods for transient receptor potential vanilloid (TRPV) channel mediated treatments” (The Board of Trustees Operating Michigan State University, priority 2006, published 2008):
Values belong to the compound of their own block, whether it stands above or below them.

Experiments:
rats = experiment: Mean arterial pressure before and after left renal pelvis perfusion (LRPP) treatments; type: in vivo, rat; conditions: for Mean arterial pressure, Treatment: after treatment; for Mean arterial pressure, Baseline: before treatment
Source text: Urine flow rate (V, FIG. 3a) and urinary sodium excretion (UNaV, FIG. 3b) of the contralateral kidney are shown (n=5-6 in each group). +vs baseline and all other groups, +p<0.05.

TRPV1−/− hearts = experiment: Preconditioning (PC) protection against I/R in Langendorff hearts with receptor antagonists, TRPV1-null; set-up: species or system mouse; conditions: CAPZ 10^−7 M, CGRP8-37 10^−6 M, RP67580 10^−7 M
Method: Male TRPV1 gene knockout (TRPV1-/-) strain B6.129S[…][…]^tm1Jul and matching control wild type (WT) strain C57BL/6J mice were used (Jackson Laboratory, Bar Harbor, Me.). Mice were heparinized (500 U/kg i.p.) and anesthetized with pentobarbital sodium (50 mg/kg i.p.). […] The distal end of the catheter was connected to a […] Performance Analyzer via a pressure transducer. Coronary flow (CF) was continuously measured using an ultrasonic flow probe placed in the aortic perfusion line. Hearts were paced at 400 bpm except during ischemic PC and sustained global ischemia to avoid inducing excessive ventricular tachyarrhythmia during reperfusion, and pacing was reinitiated 2 minutes after reperfusion. Left ventricular developed pressure (LVDP, peak systolic minuses LVEDP) and LV peak positive […]) during isovolumic contraction were used as indices of LV systolic function; LVEDP and the peak negative […] used as indices of LV diastolic function. […] Non-preconditioned hearts were time-matched perfused with the same duration as that of preconditioned hearts. Group 1: Controls. As normal controls (nonischemic), WT and TRPV1-/- hearts were perfused for 130 minutes. For I/R controls, WT and TRPV1-/- hearts were first perfused with Krebs-Henseleit buffer for 55 min (time-matched perfusion of the equilibration period plus the PC period), and subsequently subjected to 30 minutes of no-flow normothermic global ischemia followed by 40-minutes of reperfusion. Group 2: PC. […] The hearts were subjected to 30 minutes of no-flow normothermic global ischemia followed by 40-minutes of reperfusion as that of I/R control groups. Group 3: PC plus capsazepine (CAPZ). […] Two additional concentrations of CAPZ, 10^-6M and 10^-8 M, were used in WT hearts. An additional drug control was added. After a 20-minute equilibration period, WT hearts were perfused with CAPZ (10^-7 M) for 10 minutes without PC, followed by perfusion with Krebs-Henseleit buffer for 25 minutes (time-matched perfusion of the PC period) and then subjected to I/R. Group 4: […] […]

hearts of WT mice = experiment: Langendorff perfused heart, ischemia and reperfusion (I/R) with OLDA, wild type; set-up: species or system mouse; conditions: antagonist 1×10^−6 M
Method: The following measurements were made on the two types of heart tissue: left ventricular end-diastolic pressure (LVEDP), left ventricular developed pressure (LVDP), coronary flow (CF), and left ventricular (LV) peak positive rate of pressure change/rate of time change (+dP/dt) were evaluated after I/R.

male Wistar rats = experiment: Depressor effect of 20-HETE analog DSR given IV, with or without antagonists; type: in vivo, rat; conditions: DSR 1 mg/kg with CAPZ 3 mg/kg, RP67580 4 mg/kg or CGRP 8-37 3 mg/kg
WT hearts [1] = experiment: Preconditioning (PC) protection against I/R in Langendorff hearts with receptor antagonists, wild type; set-up: species or system mouse
Method: Male TRPV1 gene knockout (TRPV1-/-) strain B6.129S[…][…]^tm1Jul and matching control wild type (WT) strain C57BL/6J mice were used (Jackson Laboratory, Bar Harbor, Me.). Mice were heparinized (500 U/kg i.p.) and anesthetized with pentobarbital sodium (50 mg/kg i.p.). […] The distal end of the catheter was connected to a […] Performance Analyzer via a pressure transducer. Coronary flow (CF) was continuously measured using an ultrasonic flow probe placed in the aortic perfusion line. Hearts were paced at 400 bpm except during ischemic PC and sustained global ischemia to avoid inducing excessive ventricular tachyarrhythmia during reperfusion, and pacing was reinitiated 2 minutes after reperfusion. Left ventricular developed pressure (LVDP, peak systolic minuses LVEDP) and LV peak positive […]) during isovolumic contraction were used as indices of LV systolic function; LVEDP and the peak negative […] used as indices of LV diastolic function. […] Non-preconditioned hearts were time-matched perfused with the same duration as that of preconditioned hearts. Group 1: Controls. As normal controls (nonischemic), WT and TRPV1-/- hearts were perfused for 130 minutes. For I/R controls, WT and TRPV1-/- hearts were first perfused with Krebs-Henseleit buffer for 55 min (time-matched perfusion of the equilibration period plus the PC period), and subsequently subjected to 30 minutes of no-flow normothermic global ischemia followed by 40-minutes of reperfusion. Group 2: PC. […] The hearts were subjected to 30 minutes of no-flow normothermic global ischemia followed by 40-minutes of reperfusion as that of I/R control groups. Group 3: PC plus capsazepine (CAPZ). […] Two additional concentrations of CAPZ, 10^-6M and 10^-8 M, were used in WT hearts. An additional drug control was added. After a 20-minute equilibration period, WT hearts were perfused with CAPZ (10^-7 M) for 10 minutes without PC, followed by perfusion with Krebs-Henseleit buffer for 25 minutes (time-matched perfusion of the PC period) and then subjected to I/R. Group 4: […] Two additional concentrations of CGRP8-37, 10^-5 M and 10^-7 M, were used in WT hearts. An additional drug control of CGRP8-37 was added as that of the CAPZ control group. Group 5: PC plus RP67580. To determine the role of endogenous SP during PC, hearts from WT and TRPV1-/-mice were perfused as that of CAPZ with RP67580 (10^-7 M), a selective neurokinin-1 (NK1) receptor antagonist. Two additional concentrations of RP67580, 10^-6 M and 10^-8 M, were used in WT hearts. An additional drug control of RP67580 was added as that of the CAPZ control group.

WT hearts [2] = experiment: Lactate dehydrogenase (LDH) release during I/R; set-up: species or system mouse
Method: Lactate dehydrogenase (LDH) release: In addition to the measurement of cardiac function, cardiac injury was assessed by measuring LDH release. Perfusion effluent was collected during the first 10 minutes to 20 minutes of I/R and stored at […] until analyzed. Total LDH levels were determined with the use of a CytoTox 96 assay (Promega). The data were expressed as absorbance units released per milliliter per minute per gram of heart wet tissues (Turnbull et al., Am J Physiol Heart Circ Physiol 290: […]-9, 2006; herein incorporated by reference).

[3] = system: Wistar rats (Con-NS, Con-HS, Cap-NS, Cap-HS); experiment: Natriuretic, diuretic and depressor effects of i.v. diuretics in control and capsaicin-pretreated rats on normal or high sodium diet; type: in vivo, rat; conditions: intravenous
Method: (a) Urine flow rate. (b) Urine sodium excretion. […] (c) Mean arterial pressure. […] Vehicle; trichlormethiazide.
(a) Urine flow rate. (b) Urine sodium excretion. […] (c) Mean arterial pressure.
(a) Urine flow rate. (b) Urine sodium excretion. […] (c) Mean arterial pressure. […] Vehicle; amiloride.
Design and methods Neonatal Wistar rats were treated with capsaicin or vehicle. Seven-week-old male rats were treated for 2 weeks with: vehicle plus a normal (Con-NS) or high (Con-HS) sodium diet, and capsaicin pretreatment plus a normal (Cap-NS) or high (Cap-HS) sodium diet. Mean arterial pressure (MAP), renal excretory function, and protein expression determined by Western blot were performed.

SMILES: [Cl-].[K+] [150 KCl, KCl]
Mean arterial pressure, Treatment (rats): 125 ± 4 mmHg
Mean arterial pressure, Baseline (rats): 123 ± 6 mmHg

SMILES: [Cl-].[Na+] [600 mM NaCl, NaCl]
Mean arterial pressure, Treatment (rats): 117 ± 2 mmHg
Mean arterial pressure, Baseline (rats): 115 ± 2 mmHg

SMILES: OC[C@@H](O)[C@@H](O)[C@H](O)[C@H](O)CO [1200 mOsm Mannitol, Mannitol]
Mean arterial pressure, Treatment (rats): 121 ± 7 mmHg
Mean arterial pressure, Baseline (rats): 121 ± 6 mmHg

effect on these parameters in TRPV1−/− hearts (TRPV1−/− hearts): no effect
effect on cardiac function in WT hearts without I/R (WT hearts [1]): no effect on cardiac function
effect on PC-induced cardiac protection (LVEDP, LVDP, CF, +dP/dt, −dP/dt) in WT hearts (WT hearts [1]; CAPZ 10^−7 M, CGRP8-37 10^−6 M, RP67580 10^−7 M): abolished
effect on CF in WT hearts (WT hearts [1]; PC plus I/R): no effect on CF
effect on PC protection assessed by LDH levels after I/R in WT hearts (WT hearts [2]): abolished
SMILES: COc1ccccc1CC(=N)N1C[C@@H]2C(=O)CCC(c3ccccc3)(c3ccccc3)[C@@H]2C1 [RP67580]
effect on protective effect of OLDA in WT hearts (hearts of WT mice): abolished
DSR induced-depressor effect after antagonist (male Wistar rats): 9.4±2.3 mmHg

SMILES: N=C(N)NC(=O)c1nc(Cl)c(N)nc1N [amiloride]
effect on MAP (words) [3]: no effect on MAP in any group
time of peak urine flow rate (UFR) after injection [3]: 10 min
urine flow / urine sodium excretion (words) [3]: significantly increased
effect on MAP (words) ([3]; listed as Amiloride): no effect
urine flow / urine sodium excretion (words) ([3]; listed as Amiloride): no effect
